Experimental data from PMC12705613 (Frontiers in Microbiology, 2025).

Legend:
in vivo = details: rat, in vivo, po, 20 mg/kg; for AUC(0-inf): AUC0-∞; for MRT last: MRT0-t; for MRT inf: MRT 0-∞; for half-life: t1/2z
Description: The pharmacokinetic study was described as follows.
The UHPLC-TQ-MS analysis was conducted on an LC-30 AD ultra high-performance liquid chromatograph (Shimadzu, Japan) connected to an AB 4500 (AB Sciex, United States) Triple Quadrupole Mass Spectrometer with an ESI source. Chromatographic separation was achieved on an Acquity UHPLC HSS T3 column (100 × 2.1 mm, 1.8 μm) at 40 °C, and the eluent was aqueous formic acid (100:0.1, v/v) (A) and acetonitrile with formic acid (100:0.1, v/v) (B) at a flow rate of 0.3 mL min^−1. Gradient elution differs in the calculation of residual content and pharmacokinetic experiments. MRM mode was employed. Data processing was performed using Analyst Software (AB Sciex). The UHPLC-TQ-MS method validation was conducted in terms of selectivity, linearity, carryover, accuracy and precision, matrix effect, extraction recovery, dilution integrity, and stability under various conditions, which was performed in line with the FDA guidelines for bioanalytical assays. More details were described in the Supplementary material method.
The comparisons of the relative abundance of the genera between different groups were performed using the Wilcoxon rank-sum test. Comparisons between WKY and SHRs before and after CRO treatment were conducted using either a t-test or one-way ANOVA, with p values < 0.05 considered statistically significant. […] Graphs were created using GraphPad Prism 8.0 software.
For the determination of drug remaining contents in the supernatant, the gradient elution was as follows: 0.1–0.5 min at 45% B; 0.5–1.0 min at 45–65% B; 1.5–4.0 min at 65–85% B; 4.0–4.5 min at 85% B; 4.5–4.6 min at 85%–45% B; 4.6–5.0 min at 45% B. For pharmacokinetics, the gradient elution was performed as follows: 0–0.5 min at 30% B; 0.5–1.5 min at 30–45% B; 1.5–5.0 min at 45–60% B; 5.0–7.0 min at 60–80% B; 7.0–8.0 min at 80% B; 8.1–10.0 min at 30% B. The injection volume was 5 μ L. The multiple reaction monitoring (MRM) mode was used to detect analytes and IS in the positive ion mode. The mass spectrometry parameters were set as follows: ion spray voltage was 5500 V, turbo spray temperature (TEM) of 550℃; nebulizer gas (gas 1) of 50 psi; heater gas (gas 2) of 50 psi and curtain gas of 40 psi. Nitrogen was kept as the nebulizer and auxiliary gas.

[1] = Metabolites detection in vivo in plasma, feces and urine (UHPLC-Q-TOF-MS); design: species or system rat; details: single oral losartan potassium 20 mg/kg
Description: For urine and feces, cumulative samples were collected over the following time intervals: 0–4, 4–8, 8–12, and 12–24 h after administration. The processing of the biological samples can be found in the Supplementary material.
The biological samples were processed as follows: For plasma, a total of 400 μL of pooled plasma was mixed by combining 50 μL aliquots from each time point. A 100 μL aliquot was mixed with 300 μL of methanol, vortexed for one minute, and centrifuged at 5,000 rpm for 10 minutes at 4°C [1]. In the case of urine, 1 mL was centrifuged at 4,000 rpm for 20 minutes at 4°C, and the supernatant was mixed with 2 mL of methanol, vortexed for one minute, and centrifuged at 12,000 rpm for 10 minutes at 4°C [2]. For fecal samples, 1.0 g of homogenized feces was extracted with 4 mL of methanol, sonicated in an ice-water bath for 20 minutes, and then centrifuged at 12,000 rpm for 10 minutes at 4°C [3]. Supernatants from the plasma, urine, and fecal extracts were evaporated under nitrogen gas, redissolved in methanol, and transferred to liquid chromatography vials. Samples were analyzed using UHPLC-Q-TOF-MS/MS for metabolite profiling.

gut microbiota from WKYs = assay: Anaerobic incubation of drug with fecal gut microbiota from WKYs; assay type: in vitro ADME, rat; details: for Qualitative analysis: metabolism to other compounds: WKY gut microbiota in vitro, UHPLC-Q-TOF-MS; for Remaining content: WKY gut microbiota, 40 μM drug, anaerobic 37 °C, mGAM
Description: Fresh fecal samples from WKYs and SHRs were collected and immediately transferred to an anaerobic chamber (90% N₂, 5% CO₂, 5% H₂). Fecal suspensions were prepared by homogenizing 1 g of feces in 15 mL of sterile phosphate-buffered saline containing 0.1% L-cysteine. […] Bacteria-free controls contained equivalent drug volumes consistently. […] Drug remaining content and non-target metabolites screen were detected by ultra-high performance liquid chromatography coupled with triple quadrupole mass spectrometry (UHPLC-TQ-MS) and ultra-high performance liquid chromatography with quadrupole time-of-flight mass spectrometry (UHPLC-Q-TOF-MS), respectively. The sample preparation process can be found in the Supplementary material. For UHPLC-Q-TOF-MS analysis, the MS parameters and IDA criteria can be seen in Supplementary Table S1.
The sample processing procedures were tailored to align with the experimental objectives. For qualitative metabolite profiling, supernatants from the co-incubation of bacteria and drugs were collected at designated time points, filtered using a 0.22 μm membrane, lyophilized, and reconstituted in 200 μL of methanol. After vortexing and centrifuging for 10 minutes at 4°C and 12,000 rpm, the supernatant was transferred to an LC vial, and 5 μL aliquot was injected into the UHPLC-Q-TOF-MS/MS. For quantitative analysis, 100 μL aliquots were taken from the co-incubation supernatant and spiked with 1,000 μL of methanol containing 500 ng/mL of irbesartan. Following one minute of vortexing and centrifugation at 12,000 rpm for 10 minutes, the resulting supernatant was transferred to an LC vial, and a 5μL aliquot was injected into the UHPLC-TQ-MS/MS.

[2] = after administration; ref Zhou et al., 2009; Mukai et al., 2015; cited from earlier work
human intestinal flora = system: human intestinal flora; design: method as in Zimmermann et al., 2019; details: in vitro; fecal samples from healthy individuals; ref Zimmermann et al., 2019; cited from earlier work

| SMILES | Decrease of AUC0-∞ (in vivo; SHR compared with WKY) [%] | MRT0-t (in vivo; SHR) [h] | MRT 0-∞ (in vivo; SHR) [h] | t1/2z (in vivo; SHR) [h] | Cmax (in vivo; SHR, Cmax) [µg/mL] | MRT last (in vivo; SHR) [h] | MRT inf (in vivo; SHR) [h] | Tmax (in vivo; SHR, Tmax) [h] | half-life (in vivo; SHR) [h] | Cmax (in vivo; WKY) [µg/mL] | MRT0-t (in vivo; WKY) [h] | AUC(0-t) (in vivo; WKY, AUC0-t) [µg·h/mL] | AUC(0-inf) (in vivo; WKY) [µg·h/mL] | MRT last (in vivo; WKY) [h] | Abundance in feces and plasma, SHRs vs WKYs [1] | Qualitative analysis: metabolism to other compounds (gut microbiota from WKYs) | Remaining content (gut microbiota from WKYs; 0 h) [µM] | Remaining content (gut microbiota from WKYs; 12 h) [µM] | Remaining content (gut microbiota from WKYs; 24 h) [µM] | Remaining content (gut microbiota from WKYs; 48 h) [µM] | other results |
| --- | --- | --- | --- | --- | --- | --- | --- | --- | --- | --- | --- | --- | --- | --- | --- | --- | --- | --- | --- | --- | --- |
| CCCCc1nc(Cl)c(C(=O)O)n1Cc1ccc(-c2ccccc2-c2nnn[nH]2)cc1 [E-3174] | 72.42 | 11.21 ± 0.73 | 21.63 ± 10.07 | 9.10 ± 8.85 | 1.8 ± 1.11 | 8.84 ± 1.59 | 15.1 ± 8.39 | 4.75 ± 2.56 | 10.1 ± 5.59 | 6.98509 ± 6.02388 | 12.64 ± 1.23 | 65 ± 44.1 | 78.3 ± 41.1 | 8.39 ± 2 | lower in SHRs than in WKYs | neither losartan nor E-3174 was metabolized to other compounds | 37.45 ± 1.33 | 41.40 ± 1.42 | 39.27 ± 1.11 | 31.95 ± 1.41 | Tmax (in vivo; SHR): 7.00 ± 1.67 h; AUC(0-t) (in vivo; SHR, AUC0-t): 17.6 ± 4.27 µg·h/mL; AUC(0-inf) (in vivo; SHR): 21.6 ± 3.07 µg·h/mL |
| CCCCc1nc(Cl)c(CO)n1Cc1ccc(-c2ccccc2-c2nn[nH]n2)cc1 [Losartan, Losartan potassium] | 50.24 | 7.64 ± 1.16 | 12.00 ± 2.70 | 6.04 ± 2.28 | 4 ± 1.77 | 6.79 ± 1.38 | 9.65 ± 3.34 | 0.25 | 5.91 ± 3.72 | 9.33132 ± 7.24224 | 9.99 ± 0.84 | 29.9 ± 15.4 | 39.2 ± 20.4 | 5.89 ± 2.1 | lower in SHRs than in WKYs | neither losartan nor E-3174 was metabolized to other compounds | 37.78 ± 2.05 | 36.96 ± 2.06 | 36.03 ± 0.78 | 33.85 ± 0.96 | Excreted in feces [2]: ~60%; Excreted in urine [2]: approximately 35%; Decline of AUC0-t (in vivo; SHR compared with WKY): 39.88%; AUC0-∞ (in vivo; SHR): 19.48383 ± 4.09826 µg·h/mL; AUC(0-t) (in vivo; SHR): 18.0026 ± 2.80638 µg·h/mL; MRT 0-∞ (in vivo; WKY): 23.65 ± 16.03 h; t1/2z (in vivo; WKY): 13.67 ± 13.15 h; MRT inf (in vivo; WKY): 16.7 ± 19.2 h; half-life (in vivo; WKY): 13.6 ± 14.3 h; Abundance in urine, SHRs vs WKYs [1]: more abundant in urine; Degradation on exposure to fecal samples (human intestinal flora): approximately 20% |
